# Measured values taken from publication PMC9220178, “Preclinical Characterization of Antioxidant Quinolyl Nitrone QN23 as a New Candidate for the Treatment of Ischemic Stroke” (Antioxidants, 2022).
# What was measured:
# [1] = system: adult male Wistar rats, four-vessel occlusion (4VO) transient forebrain ischemia; experiment: Neurological deficit score (NDS) after global cerebral ischemia (4VO); format: in vivo, rat; conditions: R5d
# Procedure: Transient forebrain ischemia was induced in adult male Wistar rats (10–12 weeks, Charles River, L’Arbresle, France) by the standard four-vessel occlusion (4VO) model previously described. Briefly, animals were anesthetized by intraperitoneal injection of a combination of ketamine, diazepam, and atropine (62.5, 5.0, and 0.25 mg/kg, respectively); positioned in a stereotactic device; and both vertebral arteries were cauterized. The next day, anesthesia was induced with 4% isoflurane and maintained at 2–2.5% isoflurane for carotid artery dissection. After anesthesia withdrawal, the carotid arteries were occluded with an atraumatic vascular clamp to induce brain ischemia. During the entire surgical procedure, temperature was monitored at 2 min intervals and kept at 37 °C. After 15 min of ischemia, the carotid arteries were unclamped for brain reperfusion. The animals were studied after 5 days of reperfusion (R5d), or after 11 weeks of reperfusion (long-term studies), and then they were euthanized under deep anesthesia. Animals from the sham control group were handled in the same way, but without occlusion of the carotid arteries. Ischemic animals were treated with vehicle solution (ethanol/polyethylene glycol 400/saline, 1:300:200 v/v), or with nitrones QN23 or NXY-059 in vehicle solution, as a single injection through the tail vein at the onset of reperfusion. For the therapeutic window experiments, the animals were also treated at reperfusion times 1, 3, and 6 h after ischemia. The treatments were prepared by an independent researcher and administered with concealed allocation. Treatments were administered in a randomized order obtained by a computer-based randomization program. […]
# After 5 days of post-ischemic reperfusion (R5d), neurological deficits were evaluated in the animals by a researcher blind to the treatment allocation. General status and mobility impairments were quantified according to a scale previously validated in an entire cohort of R5d animals (n = 20). […]
# [2] = system: adult male Wistar rats, four-vessel occlusion (4VO) transient forebrain ischemia; experiment: Neuronal apoptosis by TUNEL assay after transient global cerebral ischemia (4VO); format: in vivo, rat; conditions: for Neuroprotection (neuronal apoptosis, TUNEL): vehicle = 0%
# Procedure: Transient forebrain ischemia was induced in adult male Wistar rats (10–12 weeks, Charles River, L’Arbresle, France) by the standard four-vessel occlusion (4VO) model previously described. Briefly, animals were anesthetized by intraperitoneal injection of a combination of ketamine, diazepam, and atropine (62.5, 5.0, and 0.25 mg/kg, respectively); positioned in a stereotactic device; and both vertebral arteries were cauterized. The next day, anesthesia was induced with 4% isoflurane and maintained at 2–2.5% isoflurane for carotid artery dissection. After anesthesia withdrawal, the carotid arteries were occluded with an atraumatic vascular clamp to induce brain ischemia. During the entire surgical procedure, temperature was monitored at 2 min intervals and kept at 37 °C. After 15 min of ischemia, the carotid arteries were unclamped for brain reperfusion. The animals were studied after 5 days of reperfusion (R5d), or after 11 weeks of reperfusion (long-term studies), and then they were euthanized under deep anesthesia. Animals from the sham control group were handled in the same way, but without occlusion of the carotid arteries. Ischemic animals were treated with vehicle solution (ethanol/polyethylene glycol 400/saline, 1:300:200 v/v), or with nitrones QN23 or NXY-059 in vehicle solution, as a single injection through the tail vein at the onset of reperfusion. For the therapeutic window experiments, the animals were also treated at reperfusion times 1, 3, and 6 h after ischemia. The treatments were prepared by an independent researcher and administered with concealed allocation. Treatments were administered in a randomized order obtained by a computer-based randomization program. To determine the sample size, a power analysis (http://www.biomath.info/power/ttest.htm, accessed on 12 March 2020) with significance level set at 0.05 and statistical power set at 0.8 (80%) rendered a sample size of <6 subjects per group. A total of 120 ischemic animals (30 animals treated with vehicle, 60 treated with QN23, and 30 treated with NXY-059) and 9 sham control animals were included in these studies. Additionally, 13 animals were excluded from the study: 6 animals were not ischemic and 7 animals died within the 24 h after the surgical procedure (5 vehicles, 1 QN23-treated at 1.0 mg/kg, and 1 QN23-treated at 2.0 mg/kg). The Animal Care Ethics Committee of the Hospital Universitario Ramón y Cajal (Madrid, Spain) authorized all the procedures involving the animal experimentation reported here (authorization number 04/2020). These experiments were performed according to ARRIVE guidelines and the legislation on the protection of animals used for scientific purposes in Spain (RD 53/2013) and the EU (Directive 2010/63/EU). The study was designed and conducted according to the STAIR guidelines regarding physiological monitoring, sample randomization, predefined exclusion criteria, allocation concealment, blinded assessment of outcomes, dose–response definition, and a conflict-of-interest statement.
# After 5 days of reperfusion (R5d), or at 11 weeks of reperfusion in long-term studies, animals were euthanized by transcardiac perfusion via the left ventricle under deep anesthesia. First, blood was washed out with 200 mL of ice-cold saline medium, followed by fixation with 4% (w/v) paraformaldehyde solution in PBS for brain preservation. Then, the brains were carefully removed from the cranial cavity and placed in 4% (w/v) paraformaldehyde solution in PBS overnight at 4 °C. The next day, the brains were sequentially placed in 10%, 20%, and 30% (w/v) sucrose in PBS until sunken, and finally embedded in Tissue-Tek O.C.T. (Sakura Finetek, Torrance, CA, USA) before freezing at −80 °C. Brain coronal sections containing the hippocampus region were obtained by cryostat sectioning at the level of interaural line +5.7 ± 0.2 mm on Real Capillary Gap microscope slides (Agilent Dako, Santa Clara, CA, USA). […]
# [3] = system: female Sprague Dawley rats; experiment: Toxicity study, 4-day repeated i.v. dose; format: in vivo, rat
# Procedure: For the toxicokinetics study of QN23, female Sprague Dawley rats (9–10 weeks, Envigo, Barcelona, Spain) were divided into three groups (n = 6 per group) and treated intravenously with different concentrations of QN23 (2.0, 6.0, and 18 mg/kg), in vehicle solution (ethanol/polyethylene glycol 400/saline, 1:200:60 v/v), as a single bolus of 1 mL injection at 3 mL/min. Samples of plasma were taken at 0.25, 0.5, 1, 2, 4, and 8 h after the first administration (on day 1) and QN23 concentration was determined by liquid chromatography–mass spectrometry in tandem (LC-MS/MS) analysis for pharmacokinetic study. For the determination of the toxicokinetic parameters, a noncompartmental analysis was performed using the Phoenix 64 WinNonlin software (version 8.0, Certara, Sant Louis, MO, USA). This study was carried out by Swiss BioQuant AG (Reinach, Switzerland). For the toxicity study of QN23, rats were divided into four groups (n = 5 per group) and treated intravenously with vehicle (control group) or different concentrations of QN23 (2.0, 6.0, and 18 mg/kg) as a single bolus injection in a 4-day repeated dose as described above. Pathology analyses, comprising hematology, clinical biochemistry, and coagulation, were performed, and heart, kidney, liver, and spleen necropsies were collected for macroscopic analysis. This study was carried out by Vivotecnia Research S.L (Madrid, Spain).
# [4] = set-up: method as in PMID 30715875; conditions: in vitro; cited from earlier work
# [5] = four-day repeated i.v. dose, 2.0, 6.0 and 18 mg/kg
# [6] = four-day repeated i.v. dose, at some doses, no treatment-related effects concluded
smiles,measurement,setting,value
"COc1ccc2nc(Cl)c(/C=[N+](\[O-])C(C)(C)C)cc2c1 [QN23, (Z)-N-tert-Butyl-1-(2-chloro-6-methoxyquinolin-3-yl)methanimine Oxide]","General status (neurological deficit score, NDS) compared with vehicle",[1]; 2.0 mg/kg i.v. at reperfusion onset,significant improvement
same,Therapeutic window: administration time after reperfusion onset with significantly reduced NDS,"[1]; 2.0 mg/kg i.v., times tested 0, 1, 3, 6 h",up to 3 h
same,Therapeutic window: injection time after reperfusion onset with significantly reduced apoptosis-positive cells,"[2]; 2.0 mg/kg i.v., CA1 and cortical regions, R5d, times tested 0, 1, 3, 6 h",up to 3 h
same,"Neuroprotection (neuronal apoptosis, TUNEL)","[2]; CA1, 1.5 mg/kg i.v. at reperfusion onset, R5d",16.2%
same,"Neuroprotection (neuronal apoptosis, TUNEL)","[2]; CA1, 2.0 mg/kg i.v. at reperfusion onset, R5d",27.8%
same,Number of apoptotic cells compared with vehicle,"[2]; CA1 and cortical regions, 2.0 and 2.5 mg/kg i.v. at reperfusion onset, R5d",significant decrease
same,"Neuroprotection (neuronal apoptosis, TUNEL)","[2]; cortical region, 1.5 mg/kg i.v. at reperfusion onset, R5d",85.0%
same,"Neuroprotection (neuronal apoptosis, TUNEL)","[2]; cortical region, 2.0 mg/kg i.v. at reperfusion onset, R5d",88.0%
same,"EC50 of neuroprotection, TUNEL assay","[2]; either CA1 or cortical region, i.v., from dose-response curve",0.3 mg/kg
same,Tolerability of repeated intravenous administration,"[3]; 2.0, 6.0 and 18 mg/kg i.v. for four days",well tolerated
same,Treatment-related systemic signs,"[3]; 2.0, 6.0 and 18 mg/kg i.v., four-day repeated dose, compared with control group",no treatment-related systemic signs were detected
same,Absolute or relative organ weights versus control group,[3]; [5],no significant differences
same,Food intake,[3]; [5],no effects were observed
same,"Macroscopic findings at necropsy (heart, kidneys, liver, spleen)",[3]; [5],no macroscopic findings
same,"Alkaline phosphatase (ALP) level, slight variation",[3]; [6],decreased
same,"Aspartate aminotransferase (AST) level, slight variation",[3]; [6],increased
same,Hydroxyl radical (·OH) scavenging,[4],potent scavenger
